Assays:
Assay type in all cases: in vivo
[1] = system: Matricaria inodora (MATIN); test: Herbicidal pre-emergence action, section C (Table C6); details: visual grading after ca. 3 weeks
Excerpt: Seeds of mono- and dicotyledonous weed plants and crop plants were sown, in plastic or organic planting pots, in sandy loam and covered with soil. The compounds according to the invention, formulated in the form of wettable powders (WP) or as emulsifiable concentrates (EC), were applied to the surface of the covering soil as aqueous suspension or emulsion, with the addition of 0.5% of an additive, at an application rate of 600 l of water/ha (converted). Following treatment, the pots were placed in a greenhouse and kept under optimum growth conditions for the test plants. The visual grading of the damage to the test plants was carried out after ca. 3 weeks in comparison to untreated controls (herbicidal effect in percent (%): 100% effect=plants have died off, 0% effect=as control plants).

[2] = system: Alopecurus myosuroides (ALOMY); test: Herbicidal post-emergence action, section E (Table E2); details: application rate 320 g/ha, assessed visually after ca. 3 weeks; for pest or weed control at 320 g/ha: Alopecurus myosuroides, post-emergence, 504 h, read-out: post-emergence activity against ALOMY in %
Excerpt: Seeds of mono- and dicotyledonous weed plants and crop plants were sown, in plastic or organic planting pots, in sandy loam, covered with soil and grown in a greenhouse under controlled growth conditions. 2 to 3 weeks after sowing, the test plants were sprayed in the single-leaf stage. The compounds according to the invention, formulated in form of wettable powders (WP) or as emulsifiable concentrates (EC), were sprayed onto the green plant parts as aqueous suspension or emulsion, with the addition of 0.5% of an additive, at an application rate of 600 l of water/ha (converted). The test plants were placed in the greenhouse for ca. 3 weeks under optimum growth conditions, and then the effect of the preparations was assessed visually in comparison with untreated controls (herbicidal effect in percent (%): 100% effect=plants have died off, 0% effect=as control plants).

[3] = system: Zea mays (ZEAMX); test: Post-emergence effects on crop plants, section F (Table F1); details: for percent crop plant damage (phytotoxicity) on Zea mays, post-emergence at 320 g/ha / percent crop plant damage (phytotoxicity) on Zea mays, post-emergence at 80 g/ha: 504 h, read-out: post-emergence activity against ZEAMX in %; for post-emergence activity against ZEAMX in %: crop plant damage
Outline: (§1)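 After sowing in sandy loam and 2–3 weeks' greenhouse growth, single-leaf plants received foliar sprays (WP or EC, 0.5% additive, 600 l/ha water, ≤320 g/ha). Around 3 weeks on, herbicidal effect was estimated by eye, 0% meaning like controls and 100% meaning plants died.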

[4] = system: Oryza sativa (ORYZA); test: Post-emergence effects on crop plants, section F (Table F3); details: for post-emergence activity against ORYZA in %: crop plant damage; for percent crop plant damage at 80 g/ha: application rate 80 g/ha
Outline: as §1

[5] = system: Abutilon theophrasti (ABUTH); test: Herbicidal pre-emergence action, section A (Table A1); details: visual grading after ca. 3 weeks vs untreated controls
Outline: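 Compounds are applied pre-emergence to the soil covering freshly sown seeds in sandy loam, as WP or EC in water with 0.5% additive at a spray volume of 600 l/ha. Plants grow in the greenhouse, and percent damage is rated visually after roughly 3 weeks relative to untreated controls.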

[6] = system: Lolium rigidum (LOLRI); test: Herbicidal post-emergence action, section B (Table B5); details: visual rating about 3 weeks after treatment vs untreated controls; for pest or weed control at 1280 g/ha: Lolium rigidum, post-emergence, 504 h, read-out: post-emergence activity against LOLRI in %
Outline: (§2)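 In this greenhouse assay, compounds in WP or EC form were applied post-emergence with 0.5% additive at a water rate of 600 liters per hectare. Treatment took place at the one-leaf stage, and injury was rated visually about 3 weeks later against untreated plants.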

[7] = system: Amaranthus retroflexus (AMARE); test: Herbicidal post-emergence action, section B (Table B11); details: visual rating about 3 weeks after treatment vs untreated controls
Outline: as §2

[8] = system: Digitaria sanguinalis (DIGSA); test: Herbicidal pre-emergence action, section C (Table C12); details: visual grading after ca. 3 weeks; for pest or weed control at 80 g/ha: Digitaria sanguinalis, pre-emergence, 504 h, read-out: pre-emergence activity against DIGSA in %
Outline: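 Greenhouse pre-emergence test on sandy loam: spray of formulated compound onto covering soil at 600 l water/ha, then percent damage judged by eye after ca. 3 weeks relative to untreated pots.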

[9] = Tripleurospermum inodorum, pre-emergence, 504 h, application rate 320 g/ha, read-out: pre-emergence activity against MATIN in %
[10] = Abutilon theophrasti, pre-emergence, 504 h, application rate 1280 g/ha, read-out: pre-emergence activity against ABUTH in %
[11] = Oryza sativa, 504 h, read-out: post-emergence activity against ORYZA in %
[12] = Amaranthus retroflexus, post-emergence, 504 h, application rate 320 g/ha, read-out: post-emergence activity against AMARE in %

Compound | pest or weed control at 320 g/ha [1, 9] [%] | pest or weed control at 320 g/ha [2] [%] | post-emergence activity against LOLRI in % ([6]; application rate 1280 g/ha) [%] | pre-emergence activity against MATIN in % ([1]; application rate 320 g/ha) [%] | pre-emergence activity against DIGSA in % ([8]; application rate 320 g/ha) [%] | post-emergence activity against ALOMY in % [2] [%] | post-emergence activity against ZEAMX in % ([3]; application rate 320 g/ha) [%] | pest or weed control at 80 g/ha ([8]; application rate 80 g/ha) [%] | percent crop plant damage at 80 g/ha [4, 11] [%] | post-emergence activity against AMARE in % ([7]; application rate 320 g/ha) [%] | further results
Fc1ccccc1-c1nc2c(cc1Br)SCN2 [Example I-001, 6-bromo-5-(2-fluorophenyl)-2,3-dihydro[1,3]thiazolo[4,5-b]pyridine] | 90 | 90 | – | – | – | – | – | – | – | – | percent crop plant damage (phytotoxicity) on Zea mays, post-emergence at 320 g/ha ([3]; application rate 320 g/ha): 10%; percent crop plant damage at 320 g/ha ([4]; Oryza sativa, 504 h, application rate 320 g/ha, read-out: post-emergence activity against ORYZA in %): 20%
COC(=O)CCC(=O)N1CSc2cc(Cl)c(-c3ccccc3F)nc21 [Example I-003] | – | – | 90 | 80 | 90 | 80 | 0 | – | – | – | pre-emergence activity against ABUTH in % ([5]; application rate 1280 g/ha): 90%; post-emergence activity against AMARE in % ([7]; application rate 1280 g/ha): 90%; post-emergence activity against ORYZA in % ([4]; application rate 320 g/ha): 0%
Cc1cc2c(nc1-c1ccccc1F)NCS2 [Example I-007, 5-(2-fluorophenyl)-6-methyl-2,3-dihydro[1,3]thiazolo[4,5-b]pyridine] | – | 90 | – | – | – | – | – | 100 | 10 | – | pest or weed control at 1280 g/ha [5, 10]: 90%; pest or weed control at 1280 g/ha ([7]; Amaranthus retroflexus, post-emergence, 504 h, application rate 1280 g/ha, read-out: post-emergence activity against AMARE in %): 90%; pest or weed control at 80 g/ha ([1]; Tripleurospermum inodorum, pre-emergence, 504 h, application rate 80 g/ha, read-out: pre-emergence activity against MATIN in %): 80%; percent crop plant damage (phytotoxicity) on Zea mays, post-emergence at 80 g/ha ([3]; application rate 80 g/ha): 0%
Cc1cc2c(nc1-c1cccc(F)c1F)NCS2 [Example I-029, 5-(2,3-difluorophenyl)-6-methyl-2,3-dihydro[1,3]thiazolo[4,5-b]pyridine] | 80 | 80 | – | – | – | – | – | 90 | 0 | – | pest or weed control at 1280 g/ha [5, 10]: 90%; pest or weed control at 1280 g/ha ([6]; application rate 1280 g/ha): 90%; pest or weed control at 320 g/ha [7, 12]: 90%; percent crop plant damage (phytotoxicity) on Zea mays, post-emergence at 80 g/ha ([3]; application rate 80 g/ha): 0%
Cc1cc2c(nc1-c1ccccc1Cl)NCS2 [Example I-049, 5-(2-chlorophenyl)-6-methyl-2,3-dihydro[1,3]thiazolo[4,5-b]pyridine] | 80 | 80 | – | – | – | – | – | 90 | 20 | – | –
CCS(=O)(=O)N1CSc2cc(C)c(-c3ccccc3F)nc21 [Example I-060, 3-(ethylsulfonyl)-5-(2-fluorophenyl)-6-methyl-2,3-dihydro[1,3]thiazolo[4,5-b]pyridine] | 90 | 90 | – | – | – | – | – | 100 | 0 | – | pest or weed control at 320 g/ha ([5]; Abutilon theophrasti, pre-emergence, 504 h, application rate 320 g/ha, read-out: pre-emergence activity against ABUTH in %): 90%; pest or weed control at 1280 g/ha ([6]; application rate 1280 g/ha): 90%; pest or weed control at 320 g/ha [7, 12]: 90%; percent crop plant damage (phytotoxicity) on Zea mays, post-emergence at 320 g/ha ([3]; application rate 320 g/ha): 0%
Cc1cc2c(nc1-c1ccccc1F)N(C(=O)C1(C)CC(Cl)=NO1)CS2 (stereo not drawn) [Example I-083] | – | – | 90 | 90 | 100 | 90 | – | – | – | 90 | post-emergence activity against ZEAMX in % ([3]; application rate 80 g/ha): 10%; post-emergence activity against ORYZA in % ([4]; application rate 320 g/ha): 10%
Cc1cc2c(nc1-c1ccccc1F)N(S(=O)(=O)Cc1ccc(F)cc1)CS2 [Example I-122] | – | – | 90 | 80 | 100 | 90 | 0 | – | – | 90 | pre-emergence activity against ABUTH in % ([5]; application rate 1280 g/ha): 90%
COCC1(C(=O)N2CSc3cc(C)c(-c4ccccc4F)nc32)CC(Cl)=NO1 (stereo not drawn) [Example I-128] | – | – | – | – | – | 90 | 0 | – | – | 90 | pre-emergence activity against ABUTH in % ([5]; application rate 320 g/ha): 90%; post-emergence activity against LOLRI in % ([6]; application rate 320 g/ha): 90%; pre-emergence activity against MATIN in % ([1]; application rate 80 g/ha): 80%; pre-emergence activity against DIGSA in % ([8]; application rate 80 g/ha): 100%
